Values belong to the sequence of their own block, whether it stands above or below them.
Target: T1, MAL^TIR (Homo sapiens, UniProt P58753)
T1 construct: MAL (residues 79–221); 6xHis; made in house; host or cells: E. coli BL21 (DE3)
Experiment: T‐Surf phage library (P8 and P3) selection against MAL^TIR, four rounds, NGS read counts
Assay type: binding
Conditions: for P3_MAL Rank (after) / P3_MAL Rank (before): P3 library; for P8_MAL Rank (after) / P8_MAL Rank (before): P8 library; for Population: 4th round of selection against MAL TIR, share of NGS reads
Summary of the method: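 Read counts come from NGS of phage pools enriched over four selection rounds on the plate‐coated TIR domain (5 µg mL^−1). Each round: 1 h phage binding at room temperature after 0.2% BSA blocking, Tween washes, acid elution, amplification in E. coli TG1 with M13KO7 helper.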

[1] = selection against MAL, rank by count after grouping
[2] = selection against MAL, rank by count before grouping
[3] = selection against MAL TIR, rank by count after grouping
[4] = selection against MAL TIR, rank by count before grouping
[5] = P8_MAL: rank by count after grouping
[6] = P8_MAL: rank by count before grouping
[7] = selection against MAL, rank after grouping
[8] = selection against MAL, rank before grouping
[9] = 4R selection against MAL, rank after grouping
[10] = 4R selection against MAL, rank before grouping
[11] = P3_MAL: rank by count after grouping
[12] = P3_MAL: rank by count before grouping
[13] = P8_MAL pool: P8 T-Surf phage library
[14] = P3_MAL pool: P3 T-Surf phage library

T1 sequence (P58753 79-221): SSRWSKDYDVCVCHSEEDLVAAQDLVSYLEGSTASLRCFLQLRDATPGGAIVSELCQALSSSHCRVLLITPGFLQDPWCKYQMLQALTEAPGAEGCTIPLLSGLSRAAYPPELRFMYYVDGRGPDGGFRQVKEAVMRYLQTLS

P3_MAL Rank (after) [3]: 204 | P3_MAL Rank (before) [4]: 3341
Sequence: NQWRNSLTAAANLSCW

Rank (after) [5]: 183 | Rank (before) [6]: 2199
Sequence: RNFVAYLFQALAHKSI

P3_MAL Rank (after) [1]: 698 | P3_MAL Rank (before) [2]: 1420
Sequence: YAFTGHLHRYLMPRGV

P8_MAL Rank (after) [7]: 490 | P8_MAL Rank (before) [8]: 2649
Sequence: TYLGNLNNALVQAGIH

Rank (after) [5]: 122 | Rank (before) [6]: 1299
Sequence: WFYESLVSLILRDTIV

P3_MAL Rank (after) [9]: 596 | P3_MAL Rank (before) [10]: 3013
Sequence: SFFWNKLRYILPAPNN

Rank (after) [11]: 459 | Rank (before) [12]: 2149
Sequence: LQNQWKLALTNVASLV

P3_MAL Rank (after) [3]: 201 | P3_MAL Rank (before) [4]: 1953
Sequence: DQCRNALTAAANLSGW

P8_MAL Rank (after) [9]: 673 | P8_MAL Rank (before) [10]: 2481
Sequence: SEFIQKITLGMNPKIG

P3_MAL Rank (after) [9]: 656 | P3_MAL Rank (before) [10]: 2673
Sequence: PNLRTTLMTSPMRTKT

P8_MAL Rank (after) [3]: 285 | P8_MAL Rank (before) [4]: 1721
Sequence: AFFWTHLKNLPRNPTF

P3_MAL Rank (after) [3]: 241 | P3_MAL Rank (before) [4]: 1181
Sequence: FLNWPRNPKEHRHFWH

P3_MAL Rank (after) [9]: 642 | P3_MAL Rank (before) [10]: 2524
Sequence: RLLKWKEALTAAANLSGW

Population [13]: 0.00278%
Sequence: WFYERLLSLILRDTKV

Population [13]: 0.0034%
Sequence: LFFWESLKQLLRSAGR

P8_MAL Rank (after) [9]: 647 | P8_MAL Rank (before) [10]: 1141
Sequence: WFYDRLVRLILRDTKV

P3_MAL Rank (after) [7]: 576 | P3_MAL Rank (before) [8]: 3557
Sequence: KEVEGWRDALAKVASP

P3_MAL Rank (after) [1]: 767 | P3_MAL Rank (before) [2]: 3336
Sequence: NQWRDPLTGDMILSGW

P8_MAL Rank (after) [9]: 581 | P8_MAL Rank (before) [10]: 2466
Sequence: SEFIQKIILWMNLKNQ

P8_MAL Rank (after) [7]: 570 | P8_MAL Rank (before) [8]: 1906
Sequence: AFLGTFLIKLMHATIY

P3_MAL Rank (after) [7]: 535 | P3_MAL Rank (before) [8]: 3175
Sequence: SSFREGLGLLLELGKK

Rank (after) [5]: 175 | Rank (before) [6]: 1070
Sequence: KLFWAICIMRWCRRAF

The next lines start with the sequence.

Sequence: FMSHLYQGLLKGLIIT
P3_MAL Rank (after) [1]: 681 | P3_MAL Rank (before) [2]: 1202

Sequence: SFLYTFLITLTHPTTF
P8_MAL Rank (after) [3]: 266 | P8_MAL Rank (before) [4]: 1447

Sequence: NQWRNALTAAAKLKAPI
P3_MAL Rank (after) [7]: 522 | P3_MAL Rank (before) [8]: 3386

Sequence: NQLRNALTASANLSGW
P3_MAL Rank (after) [9]: 613 | P3_MAL Rank (before) [10]: 3325

Sequence: RNLVAYLLQALANKGI
Rank (after) [5]: 451 | Rank (before) [6]: 2244

Sequence: RNFVAQLKRALANKAI
P8_MAL Rank (after) [7]: 499 | P8_MAL Rank (before) [8]: 2310

Sequence: HHNSSYGEALAEHEKR
Rank (after) [11]: 167 | Rank (before) [12]: 2817

Sequence: WFYEPLVSQITRDTKV
P8_MAL Rank (after) [9]: 586 | P8_MAL Rank (before) [10]: 1294

Sequence: WSLFTVRSVLYAMSPA
P8_MAL Rank (after) [7]: 518 | P8_MAL Rank (before) [8]: 1407

Sequence: PFFWAQLKSLLRNPTS
P8_MAL Rank (after) [7]: 574 | P8_MAL Rank (before) [8]: 2320

Sequence: YTALTNSASHTFRGND
Rank (after) [11]: 444 | Rank (before) [12]: 1551

Sequence: RGFLSNLGHHLQAKDH
Rank (after) [11]: 440 | Rank (before) [12]: 2401

Sequence: PNLRTKVLNYLMRTK
Rank (after) [11]: 174 | Rank (before) [12]: 955

Sequence: SNLRPKVMNYLMRTKT
P3_MAL Rank (after) [1]: 756 | P3_MAL Rank (before) [2]: 1328

Sequence: PNLSPKVLNYLMRTKT
Rank (after) [11]: 181 | Rank (before) [12]: 2751

Sequence: YAFTGHLHRYLVQRA
Rank (after) [11]: 137 | Rank (before) [12]: 398

Sequence: YAFTAICIVIWCSVA
Rank (after) [11]: 133 | Rank (before) [12]: 726

Sequence: WFFERLVKLILRDTKV
P8_MAL Rank (after) [1]: 712 | P8_MAL Rank (before) [2]: 1114

Sequence: YNLISQLYEALHLNRI
P3_MAL Rank (after) [9]: 645 | P3_MAL Rank (before) [10]: 1587

Sequence: RNLVAYLFQALETKGI
Rank (after) [5]: 416 | Rank (before) [6]: 2243

Sequence: MFGGDTFHDFLDLISM
P8_MAL Rank (after) [3]: 192 | P8_MAL Rank (before) [4]: 1005

Sequence: WFIIKFRTVLDRVNDV
Rank (after) [5]: 396 | Rank (before) [6]: 1372

Sequence: RLWDRLRYLMPRNNHH
P3_MAL Rank (after) [7]: 571 | P3_MAL Rank (before) [8]: 2325

Sequence: TFLGHLSNGLVQAGIH
Rank (after) [5]: 478 | Rank (before) [6]: 2556

Sequence: LNVESWRQALEKAGKL
Population [14]: 0.00338%

Sequence: WFYERLVNLILRDTIV
P8_MAL Rank (after) [9]: 668 | P8_MAL Rank (before) [10]: 1241

Sequence: YAFTGHLHRYLVRRGV
Population [14]: 0.00338%

Sequence: KWFWDKLIYPLSRNPQ
P3_MAL Rank (after) [3]: 239 | P3_MAL Rank (before) [4]: 3510

Sequence: TFLGHLYNMLIQAGIH
Rank (after) [5]: 393 | Rank (before) [6]: 2595

Sequence: RLLKWKEALQQFHSGV
Rank (after) [11]: 177 | Rank (before) [12]: 2497

Sequence: AFFGAQLKSVLGNPTM
Population [13]: 0.0034%
